Consider two molecules from patent publication US20250289795A1, “METHOD FOR PREPARATION OF COMPOUND POSSESSING 5-PENTYLFURFURAL (5-PF) STRUCTURE AND USE THEREOF” (FUGENBIO CO., LTD., priority 2022, published 2025).

Series [1] concerns AMP-activated protein kinase (AMPK). Description: AMPK expression in differentiated C2C12 cells. Format: cell-based. The following applies: C2C12, positive control 90 μg/mL. As to the method: In order to confirm the effect of 5-PF-Q on the expression of AMP-activated protein kinase (AMPK), differentiated muscle cell C2C12 cells were treated with 5-PF-Q at 10 μg/mL, 50 μg/mL, and 100 μg/mL for 24 hours, respectively, as shown in FIG. 7 (10% gel, 20 μg PTN, 1° ab pAMPK 1:3,000, tAMPK 1:1,000/2° ab 1:4,000).

The subject of series [2] is Ob/Ob mice. Description: antidiabetic effect in Ob/Ob mice. It counts as in vivo. As to the method:
In order to confirm the antidiabetic effect of 5-PF-Q, the changes, due to the administration of 5-PF-Q, in body weight, food intake, reduction of blood sugar levels, toxicity, and insulin resistance were measured.
The mice were divided into group A (weight 35 g or more) and group B (weight 35 g or less) based on body weight. According to the flowchart below, each group was assigned to a metformin (200 mg/kg) administration group (positive control group) and a 5-PF-Q (15 mg/kg) administration group (experimental group) and administered orally for 3 weeks. After the 3-week administration period, blood sugar levels were measured by performing an oral glucose tolerance test (OGTT), and the mice were sacrificed 3 weeks thereafter. OGTT was also performed at the same time point for the Ob/Ob vehicle group (negative control group) that was not administered with the compound, and non-diabetic C57BL/6 mice, and they were sacrificed.

The subject of series [3] is B16F10 cells. As to conditions: cited from earlier work.

Take `CN(C)C(=N)N=C(N)N` [metformin]: the “expression of AMPK (pAMPK/tAMPK)” value in series [1] is “clearly observed”. In series [2] (Ob/Ob mice, 200 mg/kg), the “insulin resistance compared to Ob/Ob vehicle group” value was “tendency to improve insulin resistance”. The “OGTT blood sugar reduction pattern” value in series [2] (group A (35 g or more), 200 mg/kg oral for 3 weeks) was “blood sugar reduction pattern was similar”.

In the case of `CCCCCc1ccc(C=O)o1` [5-pentyl-2-furaldehyde], in series [3], the cytotoxicity entry is “without cytotoxicity” and the “inhibition of melanin production IC50” value was 8.4 µg/mL.
